From ChEMBL document CHEMBL1201862, “PubChem BioAssay data set” (2004)
Blank lines part the entries; values can stand above or below the compound they belong to. Active and inactive are the calls of the source.

How the values were obtained:
[1] = biological target: T1, Glycogen synthase kinase-3 beta (Homo sapiens, UniProt P49841); test: GSK3beta kinase inhibitors, dose response, biochemical, microfluidics, dry powder samples, set 2 (AID 623989); assay type: functional
[2] = biological target: FAD-linked sulfhydryl oxidase ALR (Homo sapiens, UniProt P55789); test: inhibitors of human ALR sulfhydryl oxidase, dose response, biochemical, H2O2 detection, luminescence, cherry-pick (AID 493248)
[3] = biological target: Cyclin-dependent kinase 5/CDK5 activator 1 (Homo sapiens, UniProt Q00535); test: CDK5-p25 kinase inhibition, dose response, selectivity assay for GSK3beta inhibitor project, biochemical, microfluidic mobility shift, dry powder, set 2 (AID 623979); assay type: functional
[4] = biological target: T2, Glycogen synthase kinase-3 alpha (Homo sapiens, UniProt P49840); test: human GSK3 alpha kinase inhibition, dose response, selectivity assay for GSK3beta inhibitor project, biochemical, microfluidics, dry powder samples, set 2 (AID 623978); assay type: functional
[5] = biological target: T3, Apoptotic protease-activating factor 1 (Homo sapiens, UniProt O14727); test: SAR analysis of small molecule Activators of Apaf-1 in a Fluorescent assay - set 2.; assay type: functional; conditions: read-out: EC50_Mean
T3 sequence (O14727 whole entry): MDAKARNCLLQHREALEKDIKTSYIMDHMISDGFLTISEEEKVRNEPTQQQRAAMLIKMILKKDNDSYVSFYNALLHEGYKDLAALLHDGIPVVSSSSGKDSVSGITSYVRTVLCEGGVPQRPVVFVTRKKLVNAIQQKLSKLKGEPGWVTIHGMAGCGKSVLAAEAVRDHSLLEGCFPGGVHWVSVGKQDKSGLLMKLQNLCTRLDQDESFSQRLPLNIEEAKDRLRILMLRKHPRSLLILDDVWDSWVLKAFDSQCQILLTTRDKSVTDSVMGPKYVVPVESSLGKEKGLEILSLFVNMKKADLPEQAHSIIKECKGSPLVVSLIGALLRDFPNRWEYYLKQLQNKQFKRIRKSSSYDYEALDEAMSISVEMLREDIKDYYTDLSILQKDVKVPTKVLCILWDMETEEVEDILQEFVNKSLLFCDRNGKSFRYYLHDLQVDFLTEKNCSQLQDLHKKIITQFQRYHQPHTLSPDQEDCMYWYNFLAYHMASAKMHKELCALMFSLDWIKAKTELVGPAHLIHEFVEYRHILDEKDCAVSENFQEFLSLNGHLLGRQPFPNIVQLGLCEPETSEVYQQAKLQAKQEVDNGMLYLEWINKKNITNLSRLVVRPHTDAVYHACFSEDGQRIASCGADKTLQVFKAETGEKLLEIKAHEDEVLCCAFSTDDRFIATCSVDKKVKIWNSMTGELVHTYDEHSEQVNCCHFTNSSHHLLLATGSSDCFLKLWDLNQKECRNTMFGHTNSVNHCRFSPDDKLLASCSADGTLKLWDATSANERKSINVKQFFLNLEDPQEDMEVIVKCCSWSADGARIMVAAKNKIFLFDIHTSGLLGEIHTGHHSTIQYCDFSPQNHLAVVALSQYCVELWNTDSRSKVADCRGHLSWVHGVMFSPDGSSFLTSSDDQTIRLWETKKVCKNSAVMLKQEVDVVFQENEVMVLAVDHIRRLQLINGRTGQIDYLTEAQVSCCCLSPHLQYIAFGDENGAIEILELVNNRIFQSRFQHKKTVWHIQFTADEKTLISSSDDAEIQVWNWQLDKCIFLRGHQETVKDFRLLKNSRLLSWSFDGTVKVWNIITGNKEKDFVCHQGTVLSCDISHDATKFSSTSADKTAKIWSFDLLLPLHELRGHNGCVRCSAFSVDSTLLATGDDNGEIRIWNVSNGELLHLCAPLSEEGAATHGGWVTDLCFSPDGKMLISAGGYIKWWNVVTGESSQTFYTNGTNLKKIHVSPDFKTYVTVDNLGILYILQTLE

[6] = SAR analysis of small molecule activators of Apaf-1 using a LZ-Caspase-9/Caspase-3 Fluorescent Selectivity assay - Set 2.; assay type: functional; conditions: read-out: EC50_Mean
[7] = biological target: Ribosomal protein S6 kinase alpha-3 (Homo sapiens, UniProt P51812); assay type: functional;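 note: measured within a kinome-wide profiling panel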
[8] = biological target: Tyrosine-protein kinase Lck (Homo sapiens, UniProt P06239); assay type: functional;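 note: lck was assayed as one member of a kinase panel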
[9] = biological target: Dual specificity mitogen-activated protein kinase kinase 1 (Homo sapiens, UniProt Q02750); test: Navigating the Kinome. Panel member name: MAP2K1; assay type: functional
[10] = biological target: Mitogen-activated protein kinase 8 (Homo sapiens, UniProt P45983); assay type: functional;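 note: value comes from one member of a kinome-wide kinase profiling panel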
[11] = biological target: Vascular endothelial growth factor receptor 2 (Homo sapiens, UniProt P35968); assay type: functional
[12] = biological target: Tyrosine-protein kinase BTK (Homo sapiens, UniProt Q06187); assay type: functional
[13] = biological target: Serine/threonine-protein kinase PAK 4 (Homo sapiens, UniProt O96013); assay type: functional;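 note: value obtained within a kinome profiling panel in which PAK4 was one of the panel members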
[14] = biological target: cAMP-dependent protein kinase catalytic subunit PRKX (Homo sapiens, UniProt P51817); assay type: functional
[15] = biological target: Receptor-type tyrosine-protein kinase FLT3 (Homo sapiens, UniProt P36888); assay type: functional;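 note: FLT3 was tested as one member of a kinome-wide kinase panel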
[16] = biological target: Macrophage-stimulating protein receptor (Homo sapiens, UniProt Q04912); test: Navigating the Kinome. Panel member name: MST1R; assay type: functional
[17] = biological target: Cyclin-dependent kinase 7 (Homo sapiens, UniProt P50613); assay type: functional;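 note: value comes from a kinome-wide kinase profiling panel in which CDK7 is one member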
[18] = biological target: Mitogen-activated protein kinase 14 (Homo sapiens, UniProt Q16539); assay type: functional;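 note: part of a kinome-wide panel, MAPK14 entry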
[19] = biological target: Fibroblast growth factor receptor 1 (Homo sapiens, UniProt P11362); assay type: functional
[20] = biological target: Calcium/calmodulin-dependent protein kinase type II subunit alpha (Homo sapiens, UniProt Q9UQM7); test: Navigating the Kinome. Panel member name: CAMK2A; assay type: functional
[21] = biological target: Cyclin-dependent kinase 9 (Homo sapiens, UniProt P50750); assay type: functional;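 note: value from the CDK9 entry of a kinome-spanning kinase panel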
[22] = biological target: Dual specificity tyrosine-phosphorylation-regulated kinase 1B (Homo sapiens, UniProt Q9Y463); test: Navigating the Kinome. Panel member name: DYRK1B; assay type: functional
[23] = biological target: Leucine-rich repeat serine/threonine-protein kinase 2 (Homo sapiens, UniProt Q5S007); assay type: functional;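 note: value from a broad kinome-wide panel profiling study in which LRRK2 was one of the kinases tested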
[24] = biological target: Dual specificity tyrosine-phosphorylation-regulated kinase 1A (Homo sapiens, UniProt Q13627); assay type: functional;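 note: measured against DYRK1A as one member of a broad kinome profiling panel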
[25] = biological target: Protein kinase C theta type (Homo sapiens, UniProt Q04759); test: Navigating the Kinome. Panel member name: PRKCQ; assay type: functional
[26] = biological target: Cyclin-dependent kinase 8 (Homo sapiens, UniProt P49336); test: Navigating the Kinome. Panel member name: CDK8; assay type: functional
[27] = biological target: Tyrosine-protein kinase ABL1 (Homo sapiens, UniProt P00519); assay type: functional
[28] = biological target: Mitogen-activated protein kinase 9 (Homo sapiens, UniProt P45984); assay type: functional;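 note: value from a kinome panel profiling assay, MAPK9 panel entry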
[29] = biological target: Serine/threonine-protein kinase D3 (Homo sapiens, UniProt O94806); assay type: functional;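 note: determined within a kinase panel screen, with PRKCN as the panel member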
[30] = biological target: Tyrosine-protein kinase JAK3 (Homo sapiens, UniProt P52333); assay type: functional
[31] = biological target: Vascular endothelial growth factor receptor 1 (Homo sapiens, UniProt P17948); assay type: functional;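 note: measured within a kinome-wide profiling panel, FLT1 as the panel member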
[32] = biological target: Serine/threonine-protein kinase TAO1 (Homo sapiens, UniProt Q7L7X3); assay type: functional
[33] = biological target: Death-associated protein kinase 3 (Homo sapiens, UniProt O43293); assay type: functional;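 note: measured as one member of a kinome-wide profiling panel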
[34] = biological target: Proto-oncogene tyrosine-protein kinase receptor Ret (Homo sapiens, UniProt P07949); assay type: functional;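 note: measured within a kinome-wide profiling panel, RET as the panel member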
[35] = biological target: G protein-coupled receptor kinase 5 (Homo sapiens, UniProt P34947); test: Navigating the Kinome. Panel member name: GPRK5; assay type: functional
[36] = biological target: Activated CDC42 kinase 1 (Homo sapiens, UniProt Q07912); test: Navigating the Kinome. Panel member name: ACK1; assay type: functional
[37] = biological target: T2, Glycogen synthase kinase-3 alpha; assay type: functional
[38] = biological target: Tyrosine-protein kinase Fyn (Homo sapiens, UniProt P06241); assay type: functional
[39] = biological target: Mitogen-activated protein kinase kinase kinase kinase 4 (Homo sapiens, UniProt O95819); assay type: functional
[40] = biological target: Dual specificity protein kinase CLK2 (Homo sapiens, UniProt P49760); assay type: functional
[41] = biological target: Tyrosine-protein kinase JAK2 (Homo sapiens, UniProt O60674); assay type: functional;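 note: JAK2 tested as one member of a kinase panel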
[42] = biological target: Platelet-derived growth factor receptor alpha (Homo sapiens, UniProt P16234); test: Navigating the Kinome. Panel member name: PDGFRA; assay type: functional
[43] = biological target: 5'-AMP-activated protein kinase catalytic subunit alpha-1 (Homo sapiens, UniProt Q13131); assay type: functional
[44] = biological target: ALK tyrosine kinase receptor (Homo sapiens, UniProt Q9UM73); assay type: functional;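 note: ALK tested as one member of a kinase panel screen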
[45] = biological target: Rho-associated protein kinase 1 (Homo sapiens, UniProt Q13464); assay type: functional;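 note: measured within a broad kinome-wide panel profiling many kinases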
[46] = biological target: Dual specificity mitogen-activated protein kinase kinase 2 (Homo sapiens, UniProt P36507); test: Navigating the Kinome. Panel member name: MAP2K2; assay type: functional
[47] = biological target: Tyrosine-protein kinase receptor TYRO3 (Homo sapiens, UniProt Q06418); assay type: functional;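 note: TYRO3 value obtained as one member of a kinome-wide profiling panel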
[48] = biological target: Macrophage colony-stimulating factor 1 receptor (Homo sapiens, UniProt P07333); assay type: functional;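 note: value comes from the Navigating the Kinome screening panel, CSF1R member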
[49] = biological target: Dual specificity protein kinase CLK4 (Homo sapiens, UniProt Q9HAZ1); assay type: functional
[50] = biological target: Serine/threonine-protein kinase TBK1 (Homo sapiens, UniProt Q9UHD2); test: Navigating the Kinome. Panel member name: TBK1; assay type: functional
[51] = biological target: Aurora kinase A (Homo sapiens, UniProt O14965); assay type: functional;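 note: value from the Navigating the Kinome kinase panel profiling, panel entry STK6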
[52] = biological target: Mitogen-activated protein kinase kinase kinase kinase 2 (Homo sapiens, UniProt Q12851); assay type: functional;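 note: measured as one member of a kinome-wide kinase panel, with MAP4K2 as the panel entry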
[53] = biological target: Cyclin-dependent kinase 5 (Homo sapiens, UniProt Q00535); assay type: functional;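 note: CDK5 measured as one member of a kinase profiling panel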
[54] = biological target: BDNF/NT-3 growth factors receptor (Homo sapiens, UniProt Q16620); assay type: functional;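 note: NTRK2 measured as one member of a broad kinome-wide kinase profiling panel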
[55] = biological target: Serine/threonine-protein kinase N2 (Homo sapiens, UniProt Q16513); assay type: functional
[56] = biological target: Activin receptor type-1 (Homo sapiens, UniProt Q04771); test: Navigating the Kinome. Panel member name: ACVR1; assay type: functional
[57] = biological target: T1, Glycogen synthase kinase-3 beta; assay type: functional
[58] = biological target: Inhibitor of nuclear factor kappa-B kinase subunit epsilon (Homo sapiens, UniProt Q14164); test: Navigating the Kinome. Panel member name: IKBKE; assay type: functional
[59] = biological target: cAMP-dependent protein kinase catalytic subunit alpha (Homo sapiens, UniProt P17612); assay type: functional
[60] = biological target: Serine/threonine-protein kinase pim-1 (Homo sapiens, UniProt P11309); assay type: functional
[61] = biological target: Leukocyte tyrosine kinase receptor (Homo sapiens, UniProt P29376); test: Navigating the Kinome. Panel member name: LTK; assay type: functional
[62] = biological target: Insulin-like growth factor 1 receptor (Homo sapiens, UniProt P08069); test: Navigating the Kinome. Panel member name: IGF1R; assay type: functional

T1 sequence (P49841 whole entry): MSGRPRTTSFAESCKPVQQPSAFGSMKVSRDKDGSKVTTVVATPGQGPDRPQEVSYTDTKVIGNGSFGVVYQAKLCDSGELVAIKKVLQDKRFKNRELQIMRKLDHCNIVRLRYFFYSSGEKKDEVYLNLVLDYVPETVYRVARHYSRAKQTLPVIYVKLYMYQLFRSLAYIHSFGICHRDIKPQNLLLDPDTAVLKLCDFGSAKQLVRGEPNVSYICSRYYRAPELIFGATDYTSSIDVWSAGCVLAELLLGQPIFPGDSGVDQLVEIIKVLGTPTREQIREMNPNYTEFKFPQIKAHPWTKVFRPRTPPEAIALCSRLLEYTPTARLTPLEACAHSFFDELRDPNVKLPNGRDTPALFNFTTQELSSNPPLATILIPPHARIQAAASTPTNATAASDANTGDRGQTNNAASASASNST
T2 sequence (P49840 whole entry): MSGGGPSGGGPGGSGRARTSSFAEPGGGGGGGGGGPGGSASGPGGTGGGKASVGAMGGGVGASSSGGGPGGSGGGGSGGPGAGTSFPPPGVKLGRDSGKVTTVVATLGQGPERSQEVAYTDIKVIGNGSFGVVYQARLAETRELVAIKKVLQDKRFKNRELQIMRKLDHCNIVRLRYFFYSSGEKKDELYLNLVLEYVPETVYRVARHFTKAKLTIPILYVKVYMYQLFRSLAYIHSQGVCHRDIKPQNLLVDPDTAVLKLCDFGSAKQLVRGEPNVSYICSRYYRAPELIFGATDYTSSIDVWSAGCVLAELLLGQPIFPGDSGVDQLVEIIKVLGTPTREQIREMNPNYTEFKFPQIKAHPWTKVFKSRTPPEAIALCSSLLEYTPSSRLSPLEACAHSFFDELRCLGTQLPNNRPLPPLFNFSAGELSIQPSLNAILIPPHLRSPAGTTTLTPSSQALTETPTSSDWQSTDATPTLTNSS
Ribosomal protein S6 kinase alpha-3, sequence (P51812 whole entry): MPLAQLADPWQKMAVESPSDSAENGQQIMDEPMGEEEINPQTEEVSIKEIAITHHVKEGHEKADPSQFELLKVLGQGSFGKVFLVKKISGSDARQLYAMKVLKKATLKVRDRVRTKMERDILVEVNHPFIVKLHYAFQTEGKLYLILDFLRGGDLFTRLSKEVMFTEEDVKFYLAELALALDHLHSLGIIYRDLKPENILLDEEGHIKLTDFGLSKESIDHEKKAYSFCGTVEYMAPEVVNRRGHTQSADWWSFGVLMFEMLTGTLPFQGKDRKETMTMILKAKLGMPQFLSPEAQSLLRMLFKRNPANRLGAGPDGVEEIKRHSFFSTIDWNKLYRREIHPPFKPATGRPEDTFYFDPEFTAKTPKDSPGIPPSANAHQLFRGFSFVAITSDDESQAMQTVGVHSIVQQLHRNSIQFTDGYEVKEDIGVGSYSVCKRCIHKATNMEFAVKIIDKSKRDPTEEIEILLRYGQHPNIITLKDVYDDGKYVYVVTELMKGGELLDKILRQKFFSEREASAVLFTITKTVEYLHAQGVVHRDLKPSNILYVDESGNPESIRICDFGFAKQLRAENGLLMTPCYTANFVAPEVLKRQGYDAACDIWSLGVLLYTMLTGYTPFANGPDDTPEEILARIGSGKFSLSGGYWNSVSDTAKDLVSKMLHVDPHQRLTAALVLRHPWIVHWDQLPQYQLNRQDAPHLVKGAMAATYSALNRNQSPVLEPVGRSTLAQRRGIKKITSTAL
Protein kinase C theta type, sequence (Q04759 whole entry): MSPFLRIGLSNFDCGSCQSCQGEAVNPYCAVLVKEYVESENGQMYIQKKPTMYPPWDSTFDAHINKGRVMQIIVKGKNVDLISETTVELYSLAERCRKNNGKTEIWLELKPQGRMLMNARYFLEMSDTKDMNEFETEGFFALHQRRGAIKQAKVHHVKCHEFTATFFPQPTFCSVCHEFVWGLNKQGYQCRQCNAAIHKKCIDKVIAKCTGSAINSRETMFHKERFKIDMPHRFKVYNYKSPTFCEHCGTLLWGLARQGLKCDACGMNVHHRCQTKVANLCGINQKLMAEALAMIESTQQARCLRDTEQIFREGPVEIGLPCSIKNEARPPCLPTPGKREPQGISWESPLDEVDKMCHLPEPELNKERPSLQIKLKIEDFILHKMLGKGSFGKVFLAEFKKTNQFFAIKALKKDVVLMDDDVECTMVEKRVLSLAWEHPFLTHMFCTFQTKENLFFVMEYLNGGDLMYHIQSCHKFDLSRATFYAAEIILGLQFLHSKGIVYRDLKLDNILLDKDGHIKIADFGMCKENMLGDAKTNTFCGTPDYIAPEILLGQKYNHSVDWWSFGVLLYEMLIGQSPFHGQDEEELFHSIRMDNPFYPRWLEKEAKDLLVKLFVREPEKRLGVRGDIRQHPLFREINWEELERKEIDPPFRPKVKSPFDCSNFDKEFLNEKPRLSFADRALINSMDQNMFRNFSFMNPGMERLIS
Tyrosine-protein kinase ABL1, sequence (P00519 whole entry): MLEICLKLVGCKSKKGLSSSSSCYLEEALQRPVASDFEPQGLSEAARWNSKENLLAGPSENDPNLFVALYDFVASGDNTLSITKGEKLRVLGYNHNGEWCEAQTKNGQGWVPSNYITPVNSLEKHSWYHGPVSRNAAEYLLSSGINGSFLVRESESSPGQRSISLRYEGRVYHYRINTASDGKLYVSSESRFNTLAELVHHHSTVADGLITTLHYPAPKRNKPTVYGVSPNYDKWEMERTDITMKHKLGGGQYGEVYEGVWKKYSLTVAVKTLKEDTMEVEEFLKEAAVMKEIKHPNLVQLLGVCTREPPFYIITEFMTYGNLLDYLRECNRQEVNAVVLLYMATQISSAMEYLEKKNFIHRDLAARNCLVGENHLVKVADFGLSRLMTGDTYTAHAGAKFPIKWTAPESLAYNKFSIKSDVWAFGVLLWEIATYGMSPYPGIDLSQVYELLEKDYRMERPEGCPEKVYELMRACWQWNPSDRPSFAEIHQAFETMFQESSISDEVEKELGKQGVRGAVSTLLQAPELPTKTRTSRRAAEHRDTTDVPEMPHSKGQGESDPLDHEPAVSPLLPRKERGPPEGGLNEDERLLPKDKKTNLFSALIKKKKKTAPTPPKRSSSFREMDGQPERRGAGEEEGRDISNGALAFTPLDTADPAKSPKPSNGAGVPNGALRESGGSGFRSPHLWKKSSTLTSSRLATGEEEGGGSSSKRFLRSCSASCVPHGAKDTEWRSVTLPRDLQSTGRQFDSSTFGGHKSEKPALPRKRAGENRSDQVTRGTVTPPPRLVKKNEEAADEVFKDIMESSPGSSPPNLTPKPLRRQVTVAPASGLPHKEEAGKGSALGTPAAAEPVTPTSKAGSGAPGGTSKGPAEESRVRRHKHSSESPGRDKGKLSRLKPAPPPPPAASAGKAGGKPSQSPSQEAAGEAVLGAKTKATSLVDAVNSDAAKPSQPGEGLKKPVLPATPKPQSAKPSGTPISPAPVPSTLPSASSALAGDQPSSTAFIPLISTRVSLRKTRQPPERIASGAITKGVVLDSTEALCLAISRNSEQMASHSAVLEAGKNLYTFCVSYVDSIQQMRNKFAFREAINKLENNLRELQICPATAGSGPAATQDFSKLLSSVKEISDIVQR
Receptor-type tyrosine-protein kinase FLT3, sequence (P36888 whole entry): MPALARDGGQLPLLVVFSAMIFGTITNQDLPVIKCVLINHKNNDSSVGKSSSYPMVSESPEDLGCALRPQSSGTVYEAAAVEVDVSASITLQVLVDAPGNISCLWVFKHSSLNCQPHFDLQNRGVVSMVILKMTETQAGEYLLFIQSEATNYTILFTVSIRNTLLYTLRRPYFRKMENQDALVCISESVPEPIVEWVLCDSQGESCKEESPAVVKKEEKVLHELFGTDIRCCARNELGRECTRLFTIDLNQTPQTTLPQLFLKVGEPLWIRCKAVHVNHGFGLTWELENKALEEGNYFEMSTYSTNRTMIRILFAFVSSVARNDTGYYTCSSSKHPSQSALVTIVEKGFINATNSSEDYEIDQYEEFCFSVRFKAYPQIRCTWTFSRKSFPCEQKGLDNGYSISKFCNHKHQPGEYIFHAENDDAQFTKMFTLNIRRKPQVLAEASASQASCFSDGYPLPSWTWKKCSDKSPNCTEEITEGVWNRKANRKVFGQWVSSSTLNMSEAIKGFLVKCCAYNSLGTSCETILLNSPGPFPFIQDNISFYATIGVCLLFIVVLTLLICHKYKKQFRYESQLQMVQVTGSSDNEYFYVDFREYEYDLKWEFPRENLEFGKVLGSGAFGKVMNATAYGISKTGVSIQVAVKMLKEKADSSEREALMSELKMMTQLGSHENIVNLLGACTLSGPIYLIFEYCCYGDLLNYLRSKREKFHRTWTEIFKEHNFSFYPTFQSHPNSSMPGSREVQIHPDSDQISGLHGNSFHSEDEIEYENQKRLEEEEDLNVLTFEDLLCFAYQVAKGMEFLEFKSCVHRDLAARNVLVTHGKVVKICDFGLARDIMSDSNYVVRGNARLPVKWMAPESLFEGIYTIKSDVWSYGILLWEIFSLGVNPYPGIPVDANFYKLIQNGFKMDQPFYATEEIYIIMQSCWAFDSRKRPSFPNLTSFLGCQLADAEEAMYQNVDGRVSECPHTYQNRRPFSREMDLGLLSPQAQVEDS
G protein-coupled receptor kinase 5, sequence (P34947 whole entry): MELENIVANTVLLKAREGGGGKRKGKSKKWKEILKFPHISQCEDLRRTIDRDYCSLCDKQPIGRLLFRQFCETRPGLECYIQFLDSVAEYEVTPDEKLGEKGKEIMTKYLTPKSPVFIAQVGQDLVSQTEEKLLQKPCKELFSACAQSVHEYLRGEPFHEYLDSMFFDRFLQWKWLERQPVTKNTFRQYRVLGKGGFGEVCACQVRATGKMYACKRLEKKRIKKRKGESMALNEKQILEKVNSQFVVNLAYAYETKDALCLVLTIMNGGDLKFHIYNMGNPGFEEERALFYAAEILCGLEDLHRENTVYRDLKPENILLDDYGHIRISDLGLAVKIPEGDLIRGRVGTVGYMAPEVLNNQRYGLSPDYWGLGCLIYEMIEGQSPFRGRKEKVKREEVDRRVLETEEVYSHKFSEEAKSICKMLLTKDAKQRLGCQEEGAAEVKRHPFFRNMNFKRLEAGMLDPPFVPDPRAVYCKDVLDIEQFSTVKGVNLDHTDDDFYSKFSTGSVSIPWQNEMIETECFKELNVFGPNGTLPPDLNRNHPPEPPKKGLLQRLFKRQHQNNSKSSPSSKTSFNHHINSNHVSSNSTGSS

AC50 [1]: 1.46 µM (active) | AC50 [2]: 2.51 µM (active) | AC50 [3]: 3.7 µM (active) | AC50 [4]: 5.47 µM (active)
Structure (SMILES): COc1ccc(S(=O)(=O)Nc2c(C(=O)O)[nH]c3ccc(OC)cc23)cc1

EC50 [5]: 42.6 µM (active) | EC50 [6]: > 100 µM (inactive)
Structure (SMILES): CC(Cn1nnc2ccccc21)C(=O)O (configuration not stated)

Ki [7]: > 3.98 µM (inactive) | Ki [8]: 2.51 µM (active) | Ki [9]: > 3.16 µM (inactive) | Ki [10]: > 2.51 µM (inactive) | Ki [11]: 1.26 µM (active) | Ki [12]: > 6.31 µM (inactive) | Ki [13]: > 5.01 µM (inactive) | Ki [14]: 0.316 µM (active) | Ki [15]: > 3.16 µM (inactive) | Ki [16]: > 2.51 µM (inactive) | Ki [17]: > 3.98 µM (inactive) | Ki [18]: > 3.98 µM (inactive) | Ki [19]: > 3.98 µM (inactive) | Ki [20]: > 7.94 µM (inactive) | Ki [21]: > 1.58 µM (inactive) | Ki [22]: > 2.51 µM (inactive) | Ki [23]: 0.316 µM (active) | Ki [24]: > 2 µM (inactive) | Ki [25]: > 1.26 µM (inactive) | Ki [26]: > 3.16 µM (inactive) | Ki [27]: > 3.98 µM (inactive) | Ki [28]: > 3.98 µM (inactive) | Ki [29]: > 3.98 µM (inactive) | Ki [30]: 0.00316 µM (active) | Ki [31]: > 3.98 µM (inactive) | Ki [32]: > 6.31 µM (inactive) | Ki [34]: 2.51 µM (active) | Ki [35]: > 3.98 µM (inactive) | Ki [36]: > 3.16 µM (inactive) | Ki [37]: 2.51 µM (active) | Ki [38]: > 6.31 µM (inactive) | Ki [39]: > 5.01 µM (inactive) | Ki [40]: > 3.98 µM (inactive) | Ki [41]: 0.000794 µM (active) | Ki [42]: > 2.51 µM (inactive) | Ki [43]: > 3.16 µM (inactive) | Ki [44]: > 6.31 µM (inactive) | Ki [45]: 0.0251 µM (active) | Ki [46]: > 3.98 µM (inactive) | Ki [47]: > 3.16 µM (inactive) | Ki [48]: > 2.51 µM (inactive) | Ki [49]: > 2.51 µM (inactive) | Ki [50]: > 3.16 µM (inactive) | Ki [51]: > 1.58 µM (inactive) | Ki [52]: > 2.51 µM (inactive) | Ki [53]: > 3.16 µM (inactive) | Ki [54]: > 3.98 µM (inactive) | Ki [55]: 0.316 µM (active) | Ki [56]: > 3.98 µM (inactive) | Ki [57]: > 3.98 µM (inactive) | Ki [58]: > 3.16 µM (inactive) | Ki [59]: 0.501 µM (active) | Ki [60]: > 6.31 µM (inactive) | Ki [61]: 1 µM (active) | Ki [62]: > 2.51 µM (inactive)
Structure (SMILES): CC1CCN(C(=O)CC#N)CC1c1ncc2cnc3[nH]ccc3n12 (configuration not stated)
Ki [33]: > 5.01 µM (inactive)
